Key:
receptor tyrosine kinase = biological target: T1, receptor tyrosine kinase (Homo sapiens, UniProt P00533); test: in vitro inhibition of the enzyme receptor tyrosine kinase (Test (a)); type: biochemical; settings: enzyme from A-431 cells, EGF stimulated
T1 construct: Receptor tyrosine kinase was obtained in partially purified form from A-431 cells; endogenous in cells; host or cells: A-431 cells (human vulval carcinoma), Triton X-100 solubilised membrane extract
Procedure: (a) An in vitro assay which determines the ability of a test compound to inhibit the enzyme receptor tyrosine kinase. Receptor tyrosine kinase was obtained in partially purified form from A-431 cells (derived from human vulval carcinoma) by procedures related to those described by Carpenter et. al., J. Biol. Chem., 1979, 254, 4884, Cohen et al., J. Biol. Chem., 1982, 257, 1523 and by Braun et al., J. Biol. Chem., 1984, 259, 2051.
A-431 cells were grown to confluence using Dulbecco's modified Eagle's medium (DMEM) containing 5% fetal calf serum (FCS). The obtained cells were homogenised in a hypotonic borate/EDTA buffer at pH 10.1. The homogenate was centrifuged at 400 g for 10 minutes at 0°-4° C. The supernatant was centrifuged at 25,000 g for 30 minutes at 0°-4° C. The pelleted material was suspended in 30 mM Hepes buffer at pH 7.4 containing 5% glycerol, 4 mM benzamidine and 1% Triton X-100, stirred for 1 hour at 0°-4° C., and recentrifuged at 100,000 g for 1 hour at 0°-4° C. The supernatant, containing solubilised receptor tyrosine kinase, was stored in liquid nitrogen.
For test purposes 40 μl of the enzyme solution so obtained was added to a mixture of 400 μl of a mixture of 150 mM Hepes buffer at pH 7.4, 500 μM sodium orthovanadate, 0.1% Triton X-100, 10% glycerol, 200 μl water, 80 μl of 25 mM DTT and 80μl of a mixture of 12.5 mM manganese chloride, 125 mM magnesium chloride and distilled water. There was thus obtained the test enzyme solution. […]
The test compound/EGF mixture solution (5 μl) was added to the test enzyme solution (10 μl) and the mixture was incubated at 0°-4° C. for 30 minutes. […] Radioactivity present in the filter paper was measured using a liquid scintillation counter (Sequence A). […]
Receptor tyrosine kinase inhibition was calculated as follows: [formula]
The extent of inhibition was then determined at a range of concentrations of test compound to give an IC50 value.

[1] = tested on: human naso-pharyngeal cancer cell line KB; test: in vitro inhibition of the growth of the human naso-pharyngeal cancer cell line KB (Test (b)); type: cell-based; settings: 72 h, KB cells, EGF (10 ng/ml), 3 days, MTT
Procedure: (b) An in vitro assay which determines the ability of a test compound to inhibit the growth of the human naso-pharyngeal cancer cell line KB.
KB cells were seeded into wells at a density of 1×10^4 -1.5×10^4 cells per well and grown for 24 hours in DMEM supplemented with 5% FCS (charcoal-stripped). Cell growth was determined after incubation for 3 days by the extent of metabolism of MTT tetrazolium dye to furnish a bluish colour. Cell growth was then determined in the presence of EGF (10 ng/ml) or in the presence of EGF (10 ng/ml) and a test compound at a range of concentrations. An IC50 value could then be calculated.

liver hepatocyte growth = test: in vivo inhibition of TGFα-stimulated liver hepatocyte growth in male rats (Test (c)); settings: Rattus norvegicus, po
Procedure: (c) An in vivo assay in a group of male rats which determines the ability of a test compound (usually administered orally as a ball-milled suspension in 0.5% polysorbate) to inhibit the stimulation of liver hepatocyte growth caused by the administration of the growth factor TGFα (400 μg/kg subcutaneously, usually dosed twice, 3 and 7 hours respectively after the administration of the test compound).
In a control group of rats, the administration of TGFα causes on average a 5-fold stimulation of liver hepatocyte growth.
Cell-growth in the control and test animals is determined as follows:
On the morning of the day after the dosing of the test compound (or 0.5% polysorbate in the control group), the animals are dosed with bromodeoxyuridine (BrdU; 100 mg/kg intraperitoneally). The animals are killed four hours later and the livers are excised.
Further tests were carried out using a range of doses of the test compounds to allow the calculation of an approximate ED50 value for the inhibition of liver hepatocyte proliferation as determined by inhibition of the uptake of BrdU.

[2] = tested on: human mammary carcinoma which expresses epidermal growth factor (EGF) receptor tyrosine kinase; settings: athymic nude mice; Toi et al., 1990; cited from earlier work
[3] = tested on: another carcinoma which does not express EGF receptor tyrosine kinase; settings: Toi et al., 1990; cited from earlier work

T1 sequence (P00533 25-1210): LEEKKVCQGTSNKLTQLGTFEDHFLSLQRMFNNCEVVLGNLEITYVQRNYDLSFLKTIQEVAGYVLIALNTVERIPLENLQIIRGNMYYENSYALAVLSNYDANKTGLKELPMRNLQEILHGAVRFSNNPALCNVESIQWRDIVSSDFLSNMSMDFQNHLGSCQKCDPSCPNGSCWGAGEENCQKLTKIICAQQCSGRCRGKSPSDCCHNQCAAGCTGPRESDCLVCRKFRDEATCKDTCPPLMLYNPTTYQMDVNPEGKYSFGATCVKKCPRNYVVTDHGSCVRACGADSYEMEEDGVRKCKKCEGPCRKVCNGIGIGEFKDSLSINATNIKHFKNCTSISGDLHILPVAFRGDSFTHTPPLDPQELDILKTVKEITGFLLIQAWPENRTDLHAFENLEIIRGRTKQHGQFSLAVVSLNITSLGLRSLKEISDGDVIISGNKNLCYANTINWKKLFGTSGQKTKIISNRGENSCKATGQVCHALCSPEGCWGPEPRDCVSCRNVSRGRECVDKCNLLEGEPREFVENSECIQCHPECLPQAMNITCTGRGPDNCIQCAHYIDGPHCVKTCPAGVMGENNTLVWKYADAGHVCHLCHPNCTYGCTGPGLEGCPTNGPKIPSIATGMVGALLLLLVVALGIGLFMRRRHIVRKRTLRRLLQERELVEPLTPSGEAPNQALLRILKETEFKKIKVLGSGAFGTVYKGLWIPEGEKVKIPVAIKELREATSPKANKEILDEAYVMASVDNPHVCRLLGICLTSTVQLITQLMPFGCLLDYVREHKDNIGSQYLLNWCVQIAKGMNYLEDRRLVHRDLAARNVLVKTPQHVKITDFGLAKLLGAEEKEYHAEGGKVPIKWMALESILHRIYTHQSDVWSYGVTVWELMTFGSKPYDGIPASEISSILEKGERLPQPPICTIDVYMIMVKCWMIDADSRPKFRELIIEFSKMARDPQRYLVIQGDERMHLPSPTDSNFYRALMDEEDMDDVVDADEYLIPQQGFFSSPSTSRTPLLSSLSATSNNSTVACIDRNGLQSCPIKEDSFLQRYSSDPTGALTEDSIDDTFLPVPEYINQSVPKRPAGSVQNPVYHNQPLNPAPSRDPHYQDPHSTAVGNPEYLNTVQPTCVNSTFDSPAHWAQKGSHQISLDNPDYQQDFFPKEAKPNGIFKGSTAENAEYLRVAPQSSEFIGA
T1 sequence (P01133 971-1023 partner limits assumed): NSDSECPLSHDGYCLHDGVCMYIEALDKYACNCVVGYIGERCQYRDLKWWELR

IC50 (receptor tyrosine kinase) [nM]	IC50 [1] [nM]	Compound	ED50 (liver hepatocyte growth) [mg/kg]	growth of transplanted human mammary carcinoma expressing EGF receptor tyrosine kinase [2]	growth of another carcinoma which does not express EGF receptor tyrosine kinase [3]
10	20	Cc1cccc(Nc2ncnc3cc(F)c(NC(=O)CCl)cc23)c1 [6-(2-chloroacetamido)-7-fluoro-4-(3'-methylanilino)quinazoline]			
70	530	COc1cc2c(Nc3ccc(F)c(Cl)c3)ncnc2cc1F [4-(3'-chloro-4'-fluoroanilino)-7-fluoro-6-methoxyquinazoline]	< 12.5		
75	680	Cc1cccc(Nc2ncnc3cc(F)c(N)cc23)c1 [6-amino-7-fluoro-4-(3'-methylanilino)quinazoline]	< 40		
		O=CN/C=C/c1cc(O)ccc1O [erbstatin]		specifically attenuates the growth	without effect on the growth

From patent publication US5475001A, “Quinazoline derivatives” (Zeneca Limited, priority 1993, dated 1995)
